The source of these data is patent publication US20220186190A1, “MODELING ONCOLOGY ON DEMAND” (The Board of Trustees of the University of Illinois, priority 2019, published 2022).

pIC50: −log10 of the molar value.

The test system of one data set is HepG2. The experiment in a line: MTT chemotherapeutic screening, human HCC cell line HepG2. It is filed as cell-based. Conditions: 72 hours exposure. As for the experimental part:
(§1) Cells (1×1O^4 cells/well) were cultured in 200 ? DMEM+10% FBS overnight in 96 well plates. The following day, culture media was replaced with fresh media supplemented with one of 10 varying concentrations of each chemotherapeutic compound. Sorafenib, doxorubicin, mitomycin C, and 5-Fluorouracil (5-FU) were prepared from a stock solution in a 10-point serial dilution curve, in DMSO, and added at 1:100 to culture media (final concentration of DMSO was 1% for all conditions). As platinum complexes are inactivated by DMSO, cisplatin stock solution was 3.33 mM in water and the stock was used to prepare all dilutions. Sorafenib and mitomycin C were tested from 0.5-100 μM, doxorubicin from 0.1-20 μM, cisplatin from 1-200 μM, and 5-FU from 1-500 μM in order to assay concentrations that are relevant for clinically used dosages and that allow for calculation of the half maximal inhibitory concentration (IC50) for each compound. 96 well plates with each cell line and chemotherapeutic concentration in triplicate were prepared for time points 0, 24, 48, and 72 hours to observe a dose response overtime. For the 3-(4,5-dimethylthiazol-2-yl)-2,5-diphenyltetrazolium bromide (MTT) assay, 100 ? of fresh media was replaced at each time point, 10 ? of 5 mg/ml MTT added to each well and incubated for 4 hours at 37° C. 100 ? for an SDS/HCl solution (1 g SDS/10 ml 0.1 HCl) was then added to solubilize the resulting formazan dye and the plates incubated an additional 4 h at 37° C. Absorbance at 570 nm was read using a BioTek 800 TS Absorbance Reader (BioTek). Results are expressed in percentage, relative to the absorbance values for each cell line at time 0.
(§2) OCM and human HCC cell lines display similar sensitivities to four FDA approved cytostatic (sorafenib) and cytotoxic (doxorubicin, cisplatin, mitomycin C) chemotherapeutic agents used to treat HCC clinically, either systemically or via transarterial chemoembolization (TACE), and one shown to be ineffective (5-FU) in clinical settings.

The next data set deals with Hepal-6. The data set can be described thus: MTT chemotherapeutic screening, murine HCC cell line Hepal-6. Conditions: for pIC50: Hepal-6, MTT, 72 hours exposure. Format: cell-based. As for the experimental part:
as §1, §2

The next data set relates to OCM HCC cell lines. The data set can be described thus: MTT chemotherapeutic screening, OCM HCC cell line. It is filed as cell-based, pig. The settings on record: 72 hours exposure. As for the experimental part:
as §1, §2

Data set [1] deals with Oncopig soft tissue sarcoma tumor cells. The experiment in a line: In vitro partitioning and conversion of DON prodrugs to DON in Oncopig soft tissue sarcoma tumor cells. Format: in vitro ADME, pig. Conditions: FIGS. 12A-12D. An excerpt:
FIGS. 12A-12D are graphs showing in vitro partitioning and conversion of 6-diazo-5-oxo-1-norleucine (DON) prodrugs to DON in Oncopig soft tissue sarcoma tumor cells vs. plasma. […] However, when delivered as a prodrug (FIGS. 12B-12D), the level of active compound (DON, y-axis) is much higher in the cells than the cell supernatant.
(§3) OCM soft-tissue sarcoma cell lines were used to assess tumor cell specific uptake and conversion of 6-Diazo-5 -oxo-1-norleucine (DON) prodrugs. […] In addition, in vivo investigation of tumor specific uptake and temporal PK of systemically administered prodrugs in Oncopigs bearing SQ soft-tissue sarcomas validated the capability to employ the tumor-bearing OCM for chemotherapy drug pharmacologic studies (FIGS. 13A and 13B and Table 8).

Data set [2] in a line: In vivo PK and tumor specific uptake of systemically administered DON prodrugs in Oncopigs bearing SQ soft-tissue sarcomas. Also on record: species or system pig. The settings on record: for AUC / Cmax: systemically administered prodrug.
Source text: as §3

With `CNC(=O)c1cc(Oc2ccc(NC(=O)Nc3ccc(Cl)c(C(F)(F)F)c3)cc2)ccn1` [Sorafenib], the pIC50 – broadly, the negative decadic logarithm of the IC50, by convention in mol/L – in the data set on HepG2 (Homo sapiens) is 5.05; in the data set with Hepal-6 (Mus musculus), 5.30; in the data set with OCM HCC cell lines (Sus scrofa), 4.98.

On to `COc1cccc2c1C(=O)c1c(O)c3c(c(O)c1C2=O)C[C@@](O)(C(=O)CO)C[C@@H]3O[C@H]1C[C@H](N)[C@H](O)[C@H](C)O1` [Doxorubicin, doxorubicin], for which the negative logarithm of the IC50 (pIC50) is 6.64 in the data set with HepG2 (Homo sapiens), 6.28 in the data set on Hepal-6 (Mus musculus) and 7.10 in the data set with OCM HCC cell lines (Sus scrofa).

Regarding `[N-]=[N+]=CC(=O)CC[C@H](N)C(=O)O` [DON, 6-diazo-5-oxo-1-norleucine], the “level of DON in cells vs. cell supernatant” value in data set [1] was “high levels are observed in the cell supernatant, with small amounts entering the cells”. Moreover, the “Tumor:Plasma AUC ratio” value in data set [2] stood at 1.5. In addition, in data set [2] (FIGS. 13A and 13B), the “selective in vivo partitioning (tumor vs. plasma)” value is reported as “selective in vivo partitioning of DON to tumor cells”. In data set [2] (Plasma), the AUC is recorded as 2852 h*pmol/ml or g and the Cmax is 530 pmol/ml or g. Also, in data set [2] (Tumor), the AUC is listed as 4238 h*pmol/ml or g and the Cmax is reported as 1019 pmol/ml or g.

With `N.N.[Cl][Pt][Cl]` [Cisplatin, cisplatin], the pIC50 in the data set with HepG2 was 5.25; in the data set with Hepal-6, 5.67; in the data set on OCM HCC cell lines it was 5.27.

In the case of `O=c1[nH]cc(F)c(=O)[nH]1` [5-FU, 5-Fluorouracil], the pIC50 is 4.74 in the data set on HepG2 (Homo sapiens), 5.74 in the data set with Hepal-6 (Mus musculus) and 4.84 in the data set with OCM HCC cell lines (Sus scrofa). In the data set with Hepal-6 (Hepal-6 compared with OCM and human HCC lines), the “higher susceptibility of murine HCC lines versus OCM and human lines” value stood at 10 fold.

For `CO[C@@]12[C@H](COC(N)=O)C3=C(C(=O)C(C)=C(N)C3=O)N1C[C@@H]1N[C@@H]12` [Mitomycin C, mitomycin C], the results for the negative-log IC50 (pIC50) in the data set with HepG2, in the data set on Hepal-6 and in the data set with OCM HCC cell lines were 6.24, 6.21 and 6.32, respectively.
